Each structure is given as a SMILES string. Activity calls are given as the source filed them.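 How the source made its calls: active means compounds that inhibit the LYP-1 phosphatase with IC50 at or below 20 µM; inactive means the rest.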

The source of these data is PubChem BioAssay AID652006 (Sanford-Burnham Center for Chemical Genomics, 2013).

This assay addresses Tyrosine-protein phosphatase non-receptor type 22 (Homo sapiens) (UniProt Q9Y2R2). The assay is described as follows: PTPN22 enzyme inhibitors – biochemical, fluorescence, LYP catalytic domain, selectivity assay for LMPTP inhibitor project, dose response (AID 652006). The following applies: His-LYP catalytic domain, OMFP fluorescence, 50 min.

Tyrosine-protein phosphatase non-receptor type 22 (Homo sapiens), sequence (Q9Y2R2 whole entry, looked up, the tested form may be a part): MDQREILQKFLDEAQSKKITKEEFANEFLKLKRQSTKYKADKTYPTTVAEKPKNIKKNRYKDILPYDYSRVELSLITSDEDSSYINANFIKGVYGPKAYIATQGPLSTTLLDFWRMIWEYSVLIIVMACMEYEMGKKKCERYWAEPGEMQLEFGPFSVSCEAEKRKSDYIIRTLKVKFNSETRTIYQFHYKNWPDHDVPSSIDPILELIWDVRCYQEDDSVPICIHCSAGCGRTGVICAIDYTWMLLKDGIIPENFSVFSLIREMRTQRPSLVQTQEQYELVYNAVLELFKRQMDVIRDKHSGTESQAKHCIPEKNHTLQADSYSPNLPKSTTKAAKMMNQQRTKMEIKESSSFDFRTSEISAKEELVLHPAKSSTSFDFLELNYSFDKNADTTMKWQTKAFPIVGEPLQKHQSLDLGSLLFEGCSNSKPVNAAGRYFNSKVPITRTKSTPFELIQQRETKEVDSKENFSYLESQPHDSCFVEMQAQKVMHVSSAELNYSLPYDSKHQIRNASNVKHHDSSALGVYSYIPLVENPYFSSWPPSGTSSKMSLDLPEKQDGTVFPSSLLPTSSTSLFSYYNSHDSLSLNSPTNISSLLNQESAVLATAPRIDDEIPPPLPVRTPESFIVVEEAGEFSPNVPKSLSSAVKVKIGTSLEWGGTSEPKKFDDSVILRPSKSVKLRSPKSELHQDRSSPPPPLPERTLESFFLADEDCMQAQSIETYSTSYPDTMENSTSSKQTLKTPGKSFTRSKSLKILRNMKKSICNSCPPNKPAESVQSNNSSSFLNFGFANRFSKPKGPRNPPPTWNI

`Clc1cccc(Cl)c1Cn1cnc(=NCc2ccco2)c2[nH]cnc21`: the IC50 was > 80 µM (inactive).

In general, IC50 refers to the concentration at which inhibition is half-maximal.
